From patent publication US12263177B2, “Biologically active ganoderma lucidum compounds and synthesis of anticancer derivatives; ergosterol peroxide probes for cellular localization” (priority 2019, dated 2025)
Read-outs that look alike come from different tables or passages of the source.

Legend:
SUM-149 = assay: Cytotoxicity of EP probes via CTG assay; format: cell-based, human; conditions: Homo sapiens, SUM149, 72 hr
Description: (§2) Both normal cell lines HMEC and BJ cells were also evaluated to determine therapeutic index.
(§3) The concentrations used were experimentally determined to ensure logarithmic growth during the duration of the experiment and prevent adverse effects on cell growth by DMSO exposure. The plates were incubated at 37° C. in 5% CO2 for 24 h before treatment. Stock solutions of test compounds (10 mM in DMSO) in nine 3-fold serial dilutions were dispensed via pintool (Biomek). The final concentration of DMSO was 0.3% (v/v) in each well. The plates were incubated for 72 h at 37° C. in 5% CO2 and then quenched with CellTiter-Glo® reagent (50 μL/well in 96-well plate, 30 μL/well in 384-well plate) at RT. The positive controls included staurosporine (10 μM), gambogic acid (10 μM), and a toxic quinoline generated in-house. Plates were then incubated at RT for 20 min and centrifuged at 1000 rpm for 1 min. The cytotoxicity assay was performed by using the CellTiterGlo Luminescent Cell Viability Assay kit (G7570, Promega, Madison, WI) according to the manufacturer's instructions. Luminescence was recorded in an Envision plate reader (Perkin Elmer).
(§4) For the CTG assay, 3 or 4 replicate assays were conducted for each experimental condition, and a minimum of 3 independent experiments were conducted for cellular assays. The mean luminescence of each experimental treatment group was normalized as a percentage of the mean intensity of untreated controls. EC50 values (μM) were calculated by Pipeline Pilot Software (Accelrys, Enterprise Platform, CA, USA). EC50 values (μM) from the viability assay were calculated from dose response curve-fitting via non-linear regression by using GraphPad Prism (Version 7.0 San Diego, CA).

T47D = assay: Cytotoxicity of EP probes via CTG assay; format: cell-based; conditions: Homo sapiens, T47D, 72 hr
Description: as §2, §3, §4

HMEC = assay: Cytotoxicity of EP probes via CTG assay, normal cells; format: cell-based; conditions: Homo sapiens, HMEC, 72 hr
Description: as §2, §3, §4

SUM-149 cells [1] = assay: Cell viability assay (CellTiter-Glo or PI staining); format: cell-based, human; conditions: for EC50: Homo sapiens, read-out: EC50, SUM-149 cell viability
Description: (§5) Different concentrations of GLE-extracted bioactive chemical components were tested for 72-h treatment periods.
Either 1×10^3-4.8×10^3 or 4×10^2-1.2×10^3 cells were seeded to each well of 96- or 384-well white polystyrene flat-bottomed plates (3610 or 8804BC, Corning) in 100 μL or 30 μL media per well, respectively. The concentrations used were experimentally determined to ensure logarithmic growth during the duration of the experiment and prevent adverse effects on cell growth by DMSO exposure. The plates were incubated at 37° C. in 5% CO2 for 24 h before treatment. Stock solutions of test compounds (10 mM in DMSO) in nine 3-fold serial dilutions were dispensed via pintool (Biomek). The final concentration of DMSO was 0.3% (v/v) in each well. The plates were incubated for 72 h at 37° C. in 5% CO2 and then quenched with CellTiter-Glo® reagent (50 μL/well in 96-well plate, 30 μL/well in 384-well plate) at RT. The positive controls included staurosporine (10 μM), gambogic acid (10 μM), and a toxic quinoline generated in-house. Plates were then incubated at RT for 20 min and centrifuged at 1000 rpm for 1 min. The cytotoxicity assay was performed by using the CellTiterGlo Luminescent Cell Viability Assay kit (G7570, Promega, Madison, WI) according to the manufacturer's instructions. Luminescence was recorded in an Envision plate reader (Perkin Elmer).
as §4

MDA-MB-231 TNBC cells = assay: as above; format: cell-based; conditions: Homo sapiens, MDA-MB-231, read-out: EC50, MDA-MB-231 cell viability; FIG. 4E
Description: as §5
(§6) Either 1×10^3-4.8×10^3 or 4×10^2-1.2×10^3 cells were seeded to each well of 96- or 384-well white polystyrene flat-bottomed plates (3610 or 8804BC, Corning) in 100 μL or 30 μL media per well, respectively. The concentrations used were experimentally determined to ensure logarithmic growth during the duration of the experiment and prevent adverse effects on cell growth by DMSO exposure. The plates were incubated at 37° C. in 5% CO2 for 24 h before treatment. Stock solutions of test compounds (10 mM in DMSO) in nine 3-fold serial dilutions were dispensed via pintool (Biomek). The final concentration of DMSO was 0.3% (v/v) in each well. […] Luminescence was recorded in an Envision plate reader (Perkin Elmer).
as §4

SUM-190 IBC cells = assay: as above; format: cell-based; conditions: SUM190; FIG. 4E
Description: as §5, §6, §4

[2] = system: additional cancer cellular models; assay: Cell viability assay, additional cancer models; format: cell-based
From the text: Therefore, EP exerts selective effects on cancer cell viability, similar to the effects obtained with whole mushroom extract (GLE), indicating an ample therapeutic window for this compound.

SUM-149 cells [3] = assay: Cell cycle assay; format: cell-based, human; conditions: EP 20 μM, 48 h
Description: SUM-149 cells were treated for 48 h with EP, then collected and washed in 1×PBS. The cells (5×10^5) were fixed and permeabilized in 70% ethanol at −20° C. until further analysis. To measure the DNA content, the cells were washed and resuspended in 150 μL of PBS buffer then incubated in 100 μL of 100 μg/mL RNase A (MilliporeSigma, Burlington, MA) for 15 min at RT, then 250 μL of 50 μg/mL Propidium Iodide (MilliporeSigma) was added. Samples were incubated at RT for 10 min and analyzed on a BD FACS Canto II flow cytometer (BD Biosciences, San José, Calif.). Data were analyzed by using FlowJo software (V10, FlowJo LLC, Ashland, OR).

SUM-149 cells [4] = assay: Annexin V apoptosis detection; format: cell-based, human; conditions: 20 μM, 48 h
Description: (§1) Cells commonly fail to bypass the G1 phase of the cycle due to mutations or DNA damage, which can result in apoptosis. […] In addition, caspase 3/7 activity assays were performed as an alternate method of apoptosis detection.
SUM-149 cells (5×10^5) were seeded and treated either with vehicle (0.1% DMSO) or with 20 μM of EP or with puromycin (200 ng/mL) as positive control for 48 h. After treatment floating cells were collected, and all cells were harvested and counted. Treated cells were analyzed for cell death by using the FITC Annexin-V/7AAD Apoptosis detection kit (product #640922, Biolegend, San Diego, CA) according to the manufacturer's instructions. Briefly, cells were resuspended in Annexin Binding Buffer, stained with Annexin V-FITC and/or 7-AAD, and incubated for 30 min at 4° C. Data were acquired on a BD FACS Canto II cytometer (BD Biosciences, San José, Calif.) and analyzed by using FlowJo software (V10, FlowJo LLC, Ashland, OR).

SUM-149 cells [5] = assay: Colony formation assay; format: cell-based, human; conditions: 72 h treatment, 10 d culture
Description: as §1
SUM-149 cells (1.5×10^6 cells/well) were plated on a 6-well plate. Two days later, cell media was changed to 5% FBS, and cells were incubated at 37° C. in a 5% CO2 atmosphere for 1 h before vehicle (0.1% DMSO) or EP (5-40 μM) was added. After 72 h of treatment, cells were trypsinized and reseeded at 200 cells/mL per well in 24-well plates. After 10 d of culture, colonies were visualized by crystal violet staining, and the colony numbers were counted under a microscope.

SUM-149 cells [6] = assay: Reactive oxygen species (ROS) measurement, CellROX; format: cell-based, human
SUM-149 cells [7] = assay: Invasion assay (Transwell, Matrigel); format: cell-based, human; conditions: 72 h
Description: Previously, the anti-migratory activities of whole mushroom GLE in SUM-149 cells was reported. To investigate EP's effects on cell migration, Boyden chamber assays; while to investigate invasion, Transwell chambers were used. […] Furthermore, an additional decrease (43%) was seen when cells were treated with a non-lethal dose of 15 μM of EP (P<0.01) (FIG. 8B).
Cell migration and invasion were measured by using Corning® FluoroBlok™ Cell Culture Inserts and performing BD BioCoat Matrigel invasion assays (BD Biosciences, San José, Calif.) as described in [12, 14].

[8] = system: AKT isoforms, BCL-XL, Cyclin D1, c-Myc, PARP in SUM-149 cells; assay: Immunoblots of signaling proteins; format: cell-based, human
From the text: Studies that focus on drivers of cancer cell survival and invasion signaling show the important role of the AKT isoforms in breast cancer. AKT1 and AKT3 are associated with breast cancer invasion, and PTEN-deficient tumors depend on AKT2 for maintenance and survival. […] Regulation of AKT isoform expression by EP is extremely similar to what the inventors reported with whole mushroom GLE in the same breast cancer cell lines.
Because EP induced apoptosis, its effects on the expression on anti-apoptosis proteins BCL-2 and BCL-XL, which block the release of cytochrome C from the mitochondria were investigated. […] The apoptosis inducing effects of EP in SUM-149 cells were investigated by monitoring PARP cleavage.
Breast cancer cells treated with vehicle or EP were lysed, and equal total protein was resolved via SDS-PAGE and immunoblotted with indicated antibodies (Cell Signaling Technologies, Abcam, Sigma) as described previously.

[9] = format: physicochemical; conditions: 168 hr at RT

CC(C)[C@@H](C)/C=C/[C@@H](C)[C@H]1CC[C@@H]2[C@]1(C)CC[C@H]1[C@]23C=C[C@]2(C[C@@H](O)CC[C@]12C)OO3 [EP, ergosterol peroxide]
EC50 (SUM-149): 6 µM
EC50 (T47D): 19 µM
EC50 (HMEC): > 20 µM
concentration at which SUM-149 cell viability is significantly reduced (SUM-149 cells [1]; 72 h): 8 µM
EC50 (SUM-149 cells [1]; SUM149, 24 h): 34 µM
EC50 (SUM-149 cells [1]; SUM149, 72 h): 20 µM
EC50 (MDA-MB-231 TNBC cells): 19 µM
EC50 (SUM-190 IBC cells): 43 µM
EC50 [2]: 7 to 22 µM
increase in percentage of cells in G1 phase (SUM-149 cells [3]): ~20%
reduction of the percentage of cells in G2/M (SUM-149 cells [3]): 10%
decrease of live cells (Annexin−, 7AAD−) (SUM-149 cells [4]): ~15%
percentage of cells in early apoptosis (Annexin+, 7AAD−) (SUM-149 cells [4]): significantly increased
number and size of colonies formed (SUM-149 cells [5]): concentration-dependent decrease
ROS formation, fold (SUM-149 cells [6]; EP 20 μM, vs vehicle): 4 fold
reduction in ROS formation in the presence of NAC (SUM-149 cells [6]; NAC 500 μM): about 20%
invading cells (SUM-149 cells [7]; 10 μM): significant reduction
decrease in invasion (SUM-149 cells [7]; 15 μM): 43%
AKT2 levels ([8]; SUM-149): decreases
AKT3 levels ([8]; SUM-149): not affecting
expression of BCL-XL ([8]; SUM-149): significantly reduces
expression of Cyclin D1 ([8]; SUM-149): significantly reduces
expression of c-Myc ([8]; SUM-149): significantly reduces
expression of p-AKT1 (Ser 473) ([8]; SUM-149): significantly decreases
p-AKT2 ([8]; SUM-149): without affecting
total AKT1 levels ([8]; SUM-149): decreases
PARP cleavage ([8]; SUM-149, 24 h, EP 30 μM): induces PARP cleavage
total PARP levels ([8]; SUM-149, 24 h, EP 30 μM): significantly reduces
precipitation on standing [9]: precipitation
